Data reported in US20260184708A1, “PYRIDAZINONES AND METHODS OF USE THEREOF” (GFB (ABC), LLC, priority 2017, published 2026).
Like-named read-outs stand apart in the source and are kept apart here.

Target: T1, TRPC5 (Homo sapiens, UniProt Q9UL62)
T1 construct: expressed in transfected cells; host or cells: HEK 293
T1 sequence (Q9UL62 1-973): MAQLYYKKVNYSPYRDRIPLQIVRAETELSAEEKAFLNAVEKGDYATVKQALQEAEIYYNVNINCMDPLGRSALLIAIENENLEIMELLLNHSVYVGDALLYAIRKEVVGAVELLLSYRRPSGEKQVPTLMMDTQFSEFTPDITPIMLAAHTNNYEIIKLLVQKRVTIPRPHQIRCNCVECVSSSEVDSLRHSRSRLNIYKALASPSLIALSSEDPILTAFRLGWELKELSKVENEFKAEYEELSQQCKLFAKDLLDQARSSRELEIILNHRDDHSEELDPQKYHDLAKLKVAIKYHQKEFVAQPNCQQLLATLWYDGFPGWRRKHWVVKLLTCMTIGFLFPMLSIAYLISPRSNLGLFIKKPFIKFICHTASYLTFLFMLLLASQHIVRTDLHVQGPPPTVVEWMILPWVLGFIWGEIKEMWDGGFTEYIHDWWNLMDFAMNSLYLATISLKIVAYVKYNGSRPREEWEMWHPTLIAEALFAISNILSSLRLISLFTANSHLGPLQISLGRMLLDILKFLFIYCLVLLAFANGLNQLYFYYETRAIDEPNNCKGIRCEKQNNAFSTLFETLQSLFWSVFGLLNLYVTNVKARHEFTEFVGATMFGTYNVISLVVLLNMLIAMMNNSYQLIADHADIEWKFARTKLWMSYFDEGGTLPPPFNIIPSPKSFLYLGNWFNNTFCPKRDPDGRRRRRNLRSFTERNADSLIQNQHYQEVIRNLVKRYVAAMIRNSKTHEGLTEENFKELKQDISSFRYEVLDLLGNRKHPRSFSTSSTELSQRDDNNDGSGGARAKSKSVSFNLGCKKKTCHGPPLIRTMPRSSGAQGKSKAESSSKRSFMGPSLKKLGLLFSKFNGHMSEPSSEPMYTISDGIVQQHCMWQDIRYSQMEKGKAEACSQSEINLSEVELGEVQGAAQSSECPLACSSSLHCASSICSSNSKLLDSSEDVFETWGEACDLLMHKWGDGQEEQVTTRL
Assay: TRPC5 automated patch clamp assay (Qpatch), current block after rosiglitazone stimulation
Type: cell-based
Conditions: HEK293 cells overexpressing TRPC5, rosiglitazone stimulation
Experimental: HEK 293 cells expressing human TRPC5 were harvested, re-suspended in serum free medium, and added to the automated platform and used within 2-3 hours. Internal and external physiological solutions were freshly prepared prior to the assay. The external solution contained: 145 mM NaCl, 4 mM KCl, 2 mM CaCl2), 1 mM MgCl2, 10 mM HEPES, 10 mM glucose, pH 7.4 with NaOH and 300 mOsm/L. The internal solution contained 120 mM L-aspartic acid, 120 mM CsOH·H2O, 20 mM CsCl, 2 mM MgCl2, 8.8 mM CaCl2), 10 mM EGTA, 10 mM HEPES, 10 mM Glucose, 0.1 mM GTP and 2 mM Na2ATP; pH 7.2 with CsOH and 290 mOsm/L. The free internal Ca2+ concentration was buffered to 1 μM.
The automated electrophysiological platform QPatch 16 from Sophion (Denmark) was used to carry out the compounds profiling. The series resistance and quality of seals were continuously monitored during the experiments. Data was analyzed using Sophion QPatch assay software 5.6 (Odense). IC50 values were calculated using a least squares regression algorithm (Hill equation).
To monitor the ion currents, a voltage ramp from −100 mV to +100 mV, over 300 ms, was applied every 10 seconds, from a holding potential of −60 mV.
After recording for a minimum of 60 seconds control period, Rosiglitazone (30 uM), was applied to activate the channel.

[1] = 80 mV, read-out: TRPC5_QP XC50_80
[2] = 100 mV, read-out: TRPC5_QP XC50_100
[3] = Table 3, 80 mV, read-out: TRPC5_QP_ XC50_80
[4] = Table 3, 100 mV, read-out: TRPC5_QP_ XC50_100

Compound | IC50 [1] | IC50 [2] | IC50 [3] | IC50 [4]
Cc1ccccc1CN1CCN(c2cn[nH]c(=O)c2Br)CC1 | 1 to 5 µM | 1 to 5 µM |  | 
Cc1ccccc1CN1CCN(c2cn[nH]c(=O)c2)CC1 | 10 to 500 µM | 10 to 500 µM |  | 
Cc1ccccc1CN1CCN(c2c(Br)cn[nH]c2=O)CC1 | 1 to 5 µM | 1 to 5 µM |  | 
O=c1[nH]ncc(N2CCC(Cc3ccccc3)CC2)c1Br | 10 to 500 µM | 10 to 500 µM |  | 
O=c1[nH]ncc(N2CCN(Cc3ccccc3)CC2)c1Br | 5 to 10 µM | 5 to 10 µM |  | 
O=c1[nH]ncc(N2CCN(S(=O)(=O)c3ccccc3)CC2)c1Br | 10 to 500 µM | 10 to 500 µM |  | 
O=C(c1ccccc1)N1CCN(c2cn[nH]c(=O)c2Br)CC1 | 10 to 500 µM | 10 to 500 µM |  | 
Cc1ccccc1S(=O)(=O)N1CCN(c2cn[nH]c(=O)c2Br)CC1 | 10 to 500 µM | 10 to 500 µM |  | 
Cc1ccccc1C(=O)N1CCN(c2cn[nH]c(=O)c2Br)CC1 | 5 to 10 µM | 5 to 10 µM |  | 
NC(=O)CN1CCN(c2cn[nH]c(=O)c2Br)CC1 | 10 to 500 µM | 10 to 500 µM |  | 
CN1CCN(c2cn[nH]c(=O)c2Br)CC1 | 10 to 500 µM | 10 to 500 µM |  | 
CC(c1ccccc1)N1CCN(c2cn[nH]c(=O)c2Br)CC1 (stereo not drawn) | 1 to 5 µM | 5 to 10 µM |  | 
Cc1cccc(C)c1CN1CCN(c2cn[nH]c(=O)c2Br)CC1 | 1 to 5 µM | 1 to 5 µM |  | 
CS(=O)(=O)N1CCN(c2cn[nH]c(=O)c2Br)CC1 | 10 to 500 µM | 10 to 500 µM |  | 
CN(C)C(=O)CN1CCN(c2cn[nH]c(=O)c2Br)CC1 | 10 to 500 µM | 10 to 500 µM |  | 
O=c1[nH]ncc(N2CCN(CC3CCCCC3)CC2)c1Br | 1 to 5 µM | 1 to 5 µM |  | 
O=c1[nH]ncc(N2CCN(Cc3ccccc3)C3(CC3)C2)c1Br | 10 to 500 µM | 10 to 500 µM |  | 

Compound | IC50 [1] | IC50 [2] | IC50 [3] | IC50 [4]
Cc1ccccc1CN1CCN(c2cn[nH]c(=O)c2Br)CC12CC2 | 10 to 500 µM | 10 to 500 µM |  | 
Cc1ccccc1CN1CCCN(c2cn[nH]c(=O)c2Br)CC1 | 5 to 10 µM | 5 to 10 µM |  | 
Cc1ccccc1CN1CC2CC(C1)N2c1cn[nH]c(=O)c1Br | 10 to 500 µM | 10 to 500 µM |  | 
O=c1[nH]ncc(N2C3CCC2CN(Cc2ccccc2)C3)c1Br | 10 to 500 µM | 10 to 500 µM |  | 
Cc1ccccc1CN1CC2CC1CN2c1cn[nH]c(=O)c1Br (stereo not drawn) |  |  | 10 to 500 µM | 10 to 500 µM
O=c1[nH]ncc(N2CCCNCC2)c1Br |  |  | 10 to 500 µM | 10 to 500 µM
Cc1ccccc1CN1CC2CCC(C1)N2c1cn[nH]c(=O)c1Br |  |  | 10 to 500 µM | 10 to 500 µM
O=c1[nH]ncc(N2CCCN(Cc3ccccc3)CC2)c1Br |  |  | 10 to 500 µM | 10 to 500 µM
CC(C)(C)CN1CCN(c2cn[nH]c(=O)c2Br)CC1 |  |  | 10 to 500 µM | 10 to 500 µM
Cc1ccccc1CN1C2CC1CN(c1cn[nH]c(=O)c1Br)C2 |  |  | 10 to 500 µM | 10 to 500 µM
Cc1cc(F)ccc1CN1CCN(c2cn[nH]c(=O)c2Br)CC1 |  |  | 1 to 5 µM | 1 to 5 µM
Cn1nccc1CN1CCN(c2cn[nH]c(=O)c2Br)CC1 |  |  | 5 to 10 µM | 5 to 10 µM
Cn1ccnc1CN1CCN(c2cn[nH]c(=O)c2Br)CC1 |  |  | 10 to 500 µM | 10 to 500 µM
Cc1ccccc1C(C)N1CCN(c2cn[nH]c(=O)c2Br)CC1 (stereo not drawn) |  |  | 1 to 5 µM | 1 to 5 µM
O=c1[nH]ncc(N2CC3(CN(Cc4ccccc4)C3)C2)c1Br |  |  | 10 to 500 µM | 10 to 500 µM
Cc1ccccc1CN1CC2(C1)CN(c1cn[nH]c(=O)c1Br)C2 |  |  | 10 to 500 µM | 10 to 500 µM
